Assay results reported in patent US20240365781A1, “SYNERGISTICALLY EFFECTIVE HERBICIDE COMPOSITION COMPRISING PELARGONIC ACID AND FLAZASULFURON” (Belchim Crop Protection NV, priority 2017, published 2024).

Columns and labels:
Format in all cases: in vivo
[1] = system: Sonchus oleraceus L.; assay: post-emergence test, field trial (Examples 1-5); conditions: FT, pelargonic acid 5440 g/ha, flazasulfuron 50 g/ha, 8 L/ha
Description: (§1) The expected activity of a given combination of two or three herbicides can be calculated as follows according to a calculation method by Colby (cf. COLBY, S. R.: “Calculating synergistic and antagonistic responses of herbicide combinations”, • Weeds 15, pages 20-22, 1967): • If X=% damage by herbicide (A) at an application rate of m g/ha, • Y=% damage by herbicide (B) at an application rate of n g/ha, • E=the expected damage by herbicides (A) and (B) at application rates of m and n […] and, • then for a combination:
(§2) Individual compositions comprising pelargonic acid or flazasulfuron are compared with a herbicide composition according to the invention comprising pelargonic acid and flazasulfuron.
(§3) Herbicidal activity was determined by performing a post-emergence test. […] The corresponding mixture was in the form of a spray liquor. Besides, spray liquors of individual compositions comprising pelargonic acid or flazasulfuron were used.
(§4) Tests were performed on test fields (field trials) or in pots (pot trials).

[2] = system: Erodium cicuta; assay: post-emergence test, field trial (Examples 1-5); conditions: 28 d, FT; pelargonic acid 5440 g/ha, flazasulfuron 50 g/ha; 8 L/ha
Description: as §1, §2, §3, §4

[3] = system: Festuca ovina; assay: post-emergence test, field trial (Examples 1-5); conditions: FT
Description: as §1, §2, §3, §4

[4] = system: Anagallis arvensis; assay: post-emergence test, field trial (Examples 1-5); conditions: 3 d, FT; pelargonic acid 5440 g/ha, flazasulfuron 50 g/ha; 8 L/ha
Description: as §1, §2, §3, §4

[5] = system: Plantago major; assay: post-emergence test, field trial (Examples 1-5); conditions: FT
Description: as §1, §2, §3, §4

[6] = system: Chenopodium album; assay: post-emergence test, field trial (Examples 1-5); conditions: FT
Description: as §1, §2, §3, §4

[7] = system: Lolium sp.; assay: post-emergence test, field trial (Examples 1-5); conditions: 7 d, FT; pelargonic acid 5440 g/ha, flazasulfuron 50 g/ha; 8 L/ha
Description: as §1, §2, §3, §4

[8] = system: Convolvulus arvensis L.; assay: post-emergence test, field trial (Examples 1-5); conditions: 3 d, FT; pelargonic acid 5440 g/ha, flazasulfuron 50 g/ha; 8 L/ha
Description: as §1, §2, §3, §4

[9] = system: Echinochloa crusgalli; assay: post-emergence test, field trial (Examples 1-5); conditions: FT
Description: as §1, §2, §3, §4

[10] = system: Veronica persica; assay: post-emergence test, field trial (Examples 1-5); conditions: FT, pelargonic acid 5440 g/ha, flazasulfuron 50 g/ha, 8 L/ha
Description: as §1, §2, §3, §4

[11] = system: Epilobium tetragonum; assay: post-emergence field trial under rows of vines, 150-200 L water/ha (Examples 6-9); conditions: flazasulfuron 40 g/ha
[12] = system: Geranium molle; assay: as above; conditions: 15 d, flazasulfuron 40 g/ha
[13] = 3 d, pelargonic acid 10880 g/ha, flazasulfuron 25 g/ha, 16 L/ha
[14] = 3 d, pelargonic acid 21760 g/ha, flazasulfuron 25 g/ha, 32 L/ha
[15] = 7 d, pelargonic acid 10880 g/ha, flazasulfuron 25 g/ha, 16 L/ha
[16] = 7 d, pelargonic acid 10880 g/ha, flazasulfuron 50 g/ha, 16 L/ha
[17] = 7 d, pelargonic acid 21760 g/ha, flazasulfuron 25 g/ha, 32 L/ha
[18] = 7 d, pelargonic acid 21760 g/ha, flazasulfuron 50 g/ha, 32 L/ha
[19] = 13 d, pelargonic acid 10880 g/ha, flazasulfuron 25 g/ha, 16 L/ha
[20] = 13 d, pelargonic acid 10880 g/ha, flazasulfuron 50 g/ha, 16 L/ha
[21] = 13 d, pelargonic acid 21760 g/ha, flazasulfuron 25 g/ha, 32 L/ha
[22] = 13 d, pelargonic acid 21760 g/ha, flazasulfuron 50 g/ha, 32 L/ha
[23] = 23 d, pelargonic acid 10880 g/ha, flazasulfuron 25 g/ha, 16 L/ha
[24] = 23 d, pelargonic acid 10880 g/ha, flazasulfuron 50 g/ha, 16 L/ha
[25] = 23 d, pelargonic acid 21760 g/ha, flazasulfuron 25 g/ha, 32 L/ha
[26] = 23 d, pelargonic acid 21760 g/ha, flazasulfuron 50 g/ha, 32 L/ha
[27] = 30 d, pelargonic acid 10880 g/ha, flazasulfuron 25 g/ha, 16 L/ha
[28] = 30 d, pelargonic acid 21760 g/ha, flazasulfuron 25 g/ha, 32 L/ha
[29] = 38 d, pelargonic acid 10880 g/ha, flazasulfuron 25 g/ha, 16 L/ha
[30] = 38 d, pelargonic acid 21760 g/ha, flazasulfuron 25 g/ha, 32 L/ha
[31] = 3 d, pelargonic acid 10880 g/ha, flazasulfuron 50 g/ha, 16 L/ha
[32] = 3 d, pelargonic acid 21760 g/ha, flazasulfuron 50 g/ha, 32 L/ha
[33] = 30 d, pelargonic acid 10880 g/ha, flazasulfuron 50 g/ha, 16 L/ha
[34] = 30 d, pelargonic acid 21760 g/ha, flazasulfuron 50 g/ha, 32 L/ha
[35] = 38 d, pelargonic acid 10880 g/ha, flazasulfuron 50 g/ha, 16 L/ha
[36] = 38 d, pelargonic acid 21760 g/ha, flazasulfuron 50 g/ha, 32 L/ha

CCCCCCCCC(=O)O [Pelargonic acid, nonanoic acid]
herbicidal effect ([1]; 3 d): 2.5% | herbicidal effect ([1]; 7 d): 1.3% | herbicidal effect ([1]; 13 d): 3.8% | herbicidal effect ([1]; 28 d): 1.3% | herbicidal effect ([1]; 58 d): 0% | herbicidal effect [2]: 82.5% | herbicidal effect [3, 13]: 20% | herbicidal effect [3, 14]: 45% | herbicidal effect [3, 15]: 20% | herbicidal effect [3, 16]: 20% | herbicidal effect [3, 17]: 30% | herbicidal effect [3, 18]: 30% | herbicidal effect [3, 19]: 0% | herbicidal effect [3, 20]: 0% | herbicidal effect [3, 21]: 0% | herbicidal effect [3, 22]: 0% | herbicidal effect [3, 23]: 0% | herbicidal effect [3, 24]: 0% | herbicidal effect [3, 25]: 0% | herbicidal effect [3, 26]: 0% | herbicidal effect [3, 27]: 0% | herbicidal effect [3, 28]: 20% | herbicidal effect [3, 29]: 0% | herbicidal effect [3, 30]: 0% | herbicidal effect [4]: 13.8% | herbicidal effect [5, 13]: 20% | herbicidal effect [5, 31]: 20% | herbicidal effect [5, 32]: 50% | herbicidal effect [5, 15]: 25% | herbicidal effect [5, 16]: 25% | herbicidal effect [5, 17]: 40% | herbicidal effect [5, 18]: 40% | herbicidal effect [5, 19]: 0% | herbicidal effect [5, 20]: 0% | herbicidal effect [5, 21]: 0% | herbicidal effect [5, 22]: 0% | herbicidal effect [5, 25]: 15% | herbicidal effect [5, 26]: 15% | herbicidal effect [5, 27]: 0% | herbicidal effect [5, 33]: 0% | herbicidal effect [5, 28]: 0% | herbicidal effect [5, 34]: 0% | herbicidal effect [5, 29]: 0% | herbicidal effect [5, 35]: 0% | herbicidal effect [5, 30]: 0% | herbicidal effect [5, 36]: 0% | herbicidal effect [6, 13]: 40% | herbicidal effect [6, 31]: 40% | herbicidal effect [6, 14]: 45% | herbicidal effect [6, 32]: 45% | herbicidal effect [6, 15]: 40% | herbicidal effect [6, 16]: 40% | herbicidal effect [6, 17]: 35% | herbicidal effect [6, 18]: 35% | herbicidal effect [6, 19]: 10% | herbicidal effect [6, 20]: 10% | herbicidal effect [6, 21]: 10% | herbicidal effect [6, 22]: 10% | herbicidal effect [6, 23]: 15% | herbicidal effect [6, 25]: 40% | herbicidal effect [6, 26]: 40% | herbicidal effect [6, 27]: 0% | herbicidal effect [6, 33]: 0% | herbicidal effect [6, 28]: 0% | herbicidal effect [6, 34]: 0% | herbicidal effect [6, 29]: 15% | herbicidal effect [6, 35]: 15% | herbicidal effect [6, 30]: 30% | herbicidal effect [6, 36]: 30% | herbicidal effect [7]: 18.8% | herbicidal effect [8]: 11.3% | herbicidal effect ([9]; 3 d, pelargonic acid 5440 g/ha, flazasulfuron 50 g/ha, 8 L/ha): 51.3% | herbicidal effect [9, 13]: 45% | herbicidal effect [9, 14]: 50% | herbicidal effect ([9]; 7 d, pelargonic acid 5440 g/ha, flazasulfuron 50 g/ha, 8 L/ha): 30.8% | herbicidal effect [9, 15]: 30% | herbicidal effect [9, 16]: 30% | herbicidal effect [9, 18]: 45% | herbicidal effect ([9]; 12 d, pelargonic acid 5440 g/ha, flazasulfuron 50 g/ha, 8 L/ha): 5% | herbicidal effect [9, 19]: 0% | herbicidal effect [9, 20]: 0% | herbicidal effect [9, 21]: 0% | herbicidal effect [9, 22]: 0% | herbicidal effect [9, 23]: 10% | herbicidal effect [9, 24]: 10% | herbicidal effect [9, 25]: 10% | herbicidal effect [9, 26]: 10% | herbicidal effect ([9]; 26 d, pelargonic acid 5440 g/ha, flazasulfuron 50 g/ha, 8 L/ha): 0% | herbicidal effect [9, 27]: 0% | herbicidal effect [9, 28]: 0% | herbicidal effect [9, 29]: 0% | herbicidal effect [9, 30]: 0% | herbicidal effect ([9]; 72 d, pelargonic acid 5440 g/ha, flazasulfuron 50 g/ha, 8 L/ha): 0% | herbicidal effect ([10]; 3 d): 8.8% | herbicidal effect ([10]; 7 d): 20% | herbicidal effect ([10]; 56 d): 16.3% | herbicidal effect ([11]; 7 d, pelargonic acid 5440 g/ha): 49% | herbicidal effect ([11]; 7 d, pelargonic acid 8160 g/ha): 56% | herbicidal effect ([11]; 7 d, pelargonic acid 10880 g/ha): 73% | herbicidal effect ([11]; 14 d, pelargonic acid 6800 g/ha): 0% | herbicidal effect ([11]; 14 d, pelargonic acid 8160 g/ha): 8% | herbicidal effect ([11]; 14 d, pelargonic acid 10880 g/ha): 13% | herbicidal effect ([11]; 27 d, pelargonic acid 6800 g/ha): 0% | herbicidal effect ([11]; 27 d, pelargonic acid 8160 g/ha): 0% | herbicidal effect ([11]; 27 d, pelargonic acid 10880 g/ha): 0% | herbicidal effect ([11]; 56 d, pelargonic acid 6800 g/ha): 0% | herbicidal effect ([11]; 56 d, pelargonic acid 8160 g/ha): 0% | herbicidal effect ([11]; 56 d, pelargonic acid 10880 g/ha): 0% | herbicidal effect ([12]; pelargonic acid 5440 g/ha): 0% | herbicidal effect ([12]; pelargonic acid 6800 g/ha): 3% | herbicidal effect ([12]; pelargonic acid 8160 g/ha): 0% | herbicidal effect ([12]; pelargonic acid 10880 g/ha): 0%
